Measurements published in patent US8664391B2, “Amide compounds as boosters of antivirals” (Janssen R&D Ireland Ltd, priority 2008, dated 2014).
Like-named read-outs stand apart in the source and are kept apart here.

Key:
[1] = molecular target: T1, CYP2C19 (Homo sapiens, UniProt P33261); experiment: CYP450 inhibition, fluorescent substrate assay, CYP2C19; format: biochemical; details: substrate CEC 25 μM, read-out: 2C19-CEC % inh.
T1 construct: host or cells: E. coli
Experimental: (§1) Assay 4: CYP450 Inhibition […] This fluorescent molecule was measured using a fluorescent plate reader (Victor2 (Wallac) or Fluoroskan (Labsystems)). Compounds inhibiting the enzymatic reaction will result in a decrease of fluorescent signal. CYP P450 enzymes were prepared in house or commercially bought and stored at −80° C. [table] The assay was performed in black 96 well Costar plates. Test compounds were added to a CYP P450 enzyme solution in the presence of an NADPH generating system. After 5 min of preincubation at 37° C., the freshly prepared, phosphate buffered (pH 7.4) substrate solution was added. Known CYP P450 inhibitors were used as positive controls, negative controls were run without CYP P450 enzyme. For final reaction mixture concentrations, see Table 6. […] Then, the reaction was stopped by the addition of 200 μl acetonitrile, and the fluorescent signal was detected. [table] […] Inhibition of TMC114 Metabolisation

[2] = molecular target: T2, CYP2D6 (Homo sapiens, UniProt P10635); experiment: CYP450 inhibition, fluorescent substrate assay, CYP2D6; format: biochemical; details: substrate AMMC 3 μM, read-out: 2D6-AMMC % inh.
T2 construct: host or cells: E. coli
T2 sequence (P10635 whole entry): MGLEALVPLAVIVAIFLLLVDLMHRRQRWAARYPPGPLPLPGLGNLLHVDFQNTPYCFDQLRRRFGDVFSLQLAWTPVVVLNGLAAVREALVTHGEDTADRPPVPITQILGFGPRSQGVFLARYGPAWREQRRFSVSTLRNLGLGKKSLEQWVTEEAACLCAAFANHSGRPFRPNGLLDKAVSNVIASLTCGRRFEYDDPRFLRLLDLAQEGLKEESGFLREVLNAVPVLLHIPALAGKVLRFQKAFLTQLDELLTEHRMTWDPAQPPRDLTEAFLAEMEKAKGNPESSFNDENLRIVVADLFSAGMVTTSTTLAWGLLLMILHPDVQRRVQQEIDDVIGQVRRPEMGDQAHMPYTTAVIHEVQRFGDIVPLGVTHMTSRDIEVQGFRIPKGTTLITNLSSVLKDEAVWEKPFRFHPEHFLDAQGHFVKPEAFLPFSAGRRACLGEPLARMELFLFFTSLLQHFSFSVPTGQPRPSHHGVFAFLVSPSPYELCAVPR
Experimental: as §1

[3] = in vitro; format: in vitro ADME, human; details: pH 7.4
Text: Assay 3: Metabolic Stability of Test Compounds (HLM15′)
Sub-cellular tissue preparations are made according to Gorrod et al. (Xenobiotica, 5, pp. 453-462 (1975)) by centrifugal separation after mechanical homogenization of tissue. Human liver tissue is rinsed in ice-cold 0.1 M Tris-HCl (pH 7.4) buffer to wash excess blood. Tissue is then blotted dry, weighed and chopped coarsely using surgical scissors. The tissue pieces are homogenized in 3 volumes of ice-cold 0.1 M phosphate buffer (pH 7.4) using either a Potter-S (Braun, Italy) equipped with a Teflon pestle or a Sorvall Omni-Mix homogenizer, for 7×10 sec. In both cases, the vessel is kept in/on ice during the homogenization process. Tissue homogenates are centrifuged at 9000×g for 20 min at 4° C. using a Sorvall centrifuge or Beckman Ultracentrifuge. The resulting supernatant can be stored at −80° C. and is designated ‘S9’. The S9 fraction is centrifuged at 100,000×g for 60 min at 4° C. using a Beckman ultracentrifuge. The resulting supernatant is carefully aspirated, aliquoted and designated ‘cytosol’. The pellet is re-suspended in 0.1 M phosphate buffer (pH 7.4) in a final volume of 1 ml per 0.5 g original tissue weight and designated ‘microsomes’. All sub-cellular fractions are aliquoted, immediately frozen in liquid nitrogen and stored at −80° C. until use.
Heat-inactivated (10 min at 95° C.) ‘S9’ or microsomes were used for blank experiments. Reaction mixtures were incubated at 37° C. for 5 min, after which the reaction was started by the addition of 0.8 mM β-NADP. The reaction was incubated for 0 or 15 min. Next, the reaction was stopped by addition of 2 volumes of DMSO (or acetonitrile). Samples were centrifuged (10 min, 900×g) and analyzed by LC-MS.

[4] = molecular target: CYP2C9 (Homo sapiens, UniProt P11712); experiment: CYP450 inhibition, fluorescent substrate assay, CYP2C9; format: biochemical
Sequence of CYP2C9 (P11712 whole entry): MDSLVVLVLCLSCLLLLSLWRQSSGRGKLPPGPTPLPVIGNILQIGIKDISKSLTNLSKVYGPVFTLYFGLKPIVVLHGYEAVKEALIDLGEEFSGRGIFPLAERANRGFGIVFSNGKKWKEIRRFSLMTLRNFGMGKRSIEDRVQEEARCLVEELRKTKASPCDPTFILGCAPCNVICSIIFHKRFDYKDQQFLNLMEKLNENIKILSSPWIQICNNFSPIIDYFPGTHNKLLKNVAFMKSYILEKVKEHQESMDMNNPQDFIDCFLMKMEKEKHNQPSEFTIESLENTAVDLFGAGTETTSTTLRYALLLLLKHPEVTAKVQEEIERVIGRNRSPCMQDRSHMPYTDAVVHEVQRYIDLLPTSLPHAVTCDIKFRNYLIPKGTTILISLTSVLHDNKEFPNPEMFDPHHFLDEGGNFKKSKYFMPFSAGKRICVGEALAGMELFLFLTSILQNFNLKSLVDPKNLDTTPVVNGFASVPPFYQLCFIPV
Experimental: as §1

[5] = Cytotoxicity in mock-infected MT4 CMV-EGFP cells; format: cell-based; details: human, pCC50 = -log10(CC50), read-out: Toxicity MT4 pCC50 (converted)
Text: (§2) Assay 1 &2: Antiviral Activity/Toxicity
Analogously, MT4 cells are engineered with GFP and the constitutional cytomegalovirus (CMV) promotor. This cell line is designated MT4 CMV-EGFP, and can be used for the in vitro evaluation of cytotoxicity of investigational compounds. In this cell line, GFP levels are comparably to those of infected MT4 LTR-EGFP cells. Cytotoxic investigational compounds reduce GFP levels of mock-infected MT4 CMV-EGFP cells.
Effective concentration values such as 50% effective concentration (EC50) can be determined and are usually expressed in μM. An EC50 value is defined as the concentration of test compound that reduces the fluorescence of HIV-infected cells by 50%. The 50% cytotoxic concentration (CC50 in μM) is defined as the concentration of test compound that reduces fluorescence of the mock-infected cells by 50%. The ratio of CC50 to EC50 is defined as the selectivity index (SI) and is an indication of the selectivity of the anti-HIV activity of the inhibitor. The ultimate monitoring of HIV-1 infection and cytotoxicity is done using a scanning microscope. Image analysis allows very sensitive detection of viral infection. Measurements are done before cell necrosis, which usually takes place about five days after infection, in particular measurements are performed three days after infection.
Table 2 lists pEC50 values against the wild-type HIV-1 IIIB strain as well as pCC50 values for a selected number of compounds of the invention. A pEC50 value corresponds to −log10(EC50). A pCC50 value corresponds to −log10(CC50).

[6] = system: wild-type HIV-1 IIIB strain; experiment: Antiviral activity in MT4 LTR-EGFP cellular assay; format: cell-based; details: read-out: Antiviral Activity IIIB pEC50 (converted)
Experimental: as §2
The compounds of the present invention were tested for antiviral activity in a cellular assay, which was performed according to the following procedure.
The human T-cell line MT4 is engineered with Green Fluorescent Protein (GFP) and an HIV-specific promoter, HIV-1 long terminal repeat (LTR). This cell line is designated MT4 LTR-EGFP, and can be used for the in vitro evaluation of anti-HIV activity of investigational compounds. In HIV-1 infected cells, the Tat protein is produced which upregulates the LTR promotor and finally leads to stimulation of the GFP reporter production, allowing measuring ongoing HIV-infection fluorometrically.
The ratio of CC50 to EC50 is defined as the selectivity index (SI) and is an indication of the selectivity of the anti-HIV activity of the inhibitor. The ultimate monitoring of HIV-1 infection and cytotoxicity is done using a scanning microscope. Image analysis allows very sensitive detection of viral infection. Measurements are done before cell necrosis, which usually takes place about five days after infection, in particular measurements are performed three days after infection.
A pEC50 value corresponds to −log10(EC50). A pCC50 value corresponds to −log10(CC50).

[7] = molecular target: T3, CYP1A2 (Homo sapiens, UniProt P05177); experiment: CYP450 inhibition, fluorescent substrate assay, CYP1A2; format: biochemical; details: substrate CEC 5 μM, read-out: 1A2-CEC % inh.
T3 construct: host or cells: E. coli
T3 sequence (P05177 1-516): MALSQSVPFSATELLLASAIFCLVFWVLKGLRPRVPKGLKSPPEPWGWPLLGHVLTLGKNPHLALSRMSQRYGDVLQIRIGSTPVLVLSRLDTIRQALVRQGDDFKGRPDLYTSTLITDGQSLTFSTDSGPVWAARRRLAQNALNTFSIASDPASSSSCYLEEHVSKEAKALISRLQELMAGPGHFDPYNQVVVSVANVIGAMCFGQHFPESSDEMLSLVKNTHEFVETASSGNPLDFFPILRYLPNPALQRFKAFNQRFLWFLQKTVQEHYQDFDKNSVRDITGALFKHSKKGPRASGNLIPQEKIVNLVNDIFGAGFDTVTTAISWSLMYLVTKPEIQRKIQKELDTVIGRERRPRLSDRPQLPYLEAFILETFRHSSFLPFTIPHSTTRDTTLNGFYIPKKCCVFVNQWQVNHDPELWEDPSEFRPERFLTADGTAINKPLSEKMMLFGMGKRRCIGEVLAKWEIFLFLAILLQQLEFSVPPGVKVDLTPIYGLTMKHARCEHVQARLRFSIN
Experimental: as §1

[8] = molecular target: T4, CYP3A4 (Homo sapiens, UniProt P08684); experiment: CYP450 inhibition, fluorescent substrate assay, CYP3A4; format: biochemical; details: 10 μM test compound; for inhibition at 10 min, 10 μM: E. coli expressed CYP3A4, pH 7.4, probe DBF (1 μM), substrate DBF 1 μM, read-out: 3A4-DBF % inh.
T4 construct: host or cells: E. coli
T4 sequence (P08684 whole entry): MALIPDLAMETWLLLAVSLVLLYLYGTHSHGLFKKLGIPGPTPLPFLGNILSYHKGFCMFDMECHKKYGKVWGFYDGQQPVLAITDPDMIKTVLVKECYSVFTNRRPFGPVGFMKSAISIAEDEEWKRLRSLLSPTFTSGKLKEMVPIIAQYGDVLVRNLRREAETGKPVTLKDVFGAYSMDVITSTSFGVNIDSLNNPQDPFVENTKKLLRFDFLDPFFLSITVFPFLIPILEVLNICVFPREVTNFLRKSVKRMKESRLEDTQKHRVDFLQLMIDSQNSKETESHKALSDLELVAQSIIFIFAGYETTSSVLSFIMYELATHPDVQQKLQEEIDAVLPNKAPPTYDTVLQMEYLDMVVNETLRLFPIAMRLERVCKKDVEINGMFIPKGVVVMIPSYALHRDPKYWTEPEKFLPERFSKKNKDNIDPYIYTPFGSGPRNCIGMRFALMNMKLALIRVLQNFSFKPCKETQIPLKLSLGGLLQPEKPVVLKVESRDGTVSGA
Experimental: as §1

[9] = E. coli expressed CYP2C19, pH 7.4, probe CEC (25 μM), 10 μM test compound
[10] = E. coli expressed CYP2D6, pH 7.4, probe AMMC (3 μM), 10 μM test compound
[11] = Human immunodeficiency virus 1, 72 h, wild-type HIV-1 IIIB, MT4 LTR-EGFP cells, three days after infection, pEC50 = -log10(EC50)
[12] = E. coli expressed CYP1A2, pH 7.4, probe CEC (5 μM), 10 μM test compound
[13] = E. coli expressed CYP3A4, pH 7.4, probe BFC (150 μM), substrate BFC 150 μM, read-out: 3A4-BFC % inh.
[14] = E. coli expressed CYP3A4, pH 7.4, probe BQ (60 μM), substrate BQ 60 μM, read-out: 3A4-BQ % inh.

T1 sequence (P33261 whole entry): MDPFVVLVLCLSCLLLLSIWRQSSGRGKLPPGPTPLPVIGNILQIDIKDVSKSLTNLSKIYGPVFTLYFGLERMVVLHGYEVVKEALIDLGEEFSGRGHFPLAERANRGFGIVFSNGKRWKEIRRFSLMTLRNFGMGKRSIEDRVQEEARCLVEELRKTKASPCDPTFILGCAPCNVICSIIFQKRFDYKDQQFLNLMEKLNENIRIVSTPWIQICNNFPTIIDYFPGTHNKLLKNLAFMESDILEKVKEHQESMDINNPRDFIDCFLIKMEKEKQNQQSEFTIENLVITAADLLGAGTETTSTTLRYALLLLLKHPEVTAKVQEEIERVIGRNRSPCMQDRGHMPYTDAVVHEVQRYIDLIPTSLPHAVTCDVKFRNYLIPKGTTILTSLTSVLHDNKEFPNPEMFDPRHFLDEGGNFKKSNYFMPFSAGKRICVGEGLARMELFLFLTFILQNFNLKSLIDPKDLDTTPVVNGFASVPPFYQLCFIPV

SMILES	inhibition at 30 min, 10 μM ([1]; pH 7.4, 10 μM test compound) [%]	inhibition at 45 min, 10 μM ([2]; pH 7.4, 10 μM test compound) [%]	recovery at 15 min, 5 μM ([3]; human liver microsomes 1 mg/ml, 5 μM test compound, 15 min, 37° C., read-out: % recovery HLM15) [%]	inhibition at 30 min, 10 μM ([4]; pH 7.4, 10 μM test compound, substrate MFC 200 μM, 30 min, read-out: 2C9-MFC % inh.) [%]	CC50 at 3 days [5] [µM]	EC50 ([6]; Human immunodeficiency virus 1, IIIB, 72 h) [µM]	inhibition at 15 min, 10 μM ([7]; pH 7.4, 10 μM test compound) [%]	inhibition at 30 min, 10 μM [1, 9] [%]	inhibition at 45 min, 10 μM [2, 10] [%]	recovery at 15 min, 5 μM ([3]; human) [%]	EC50 [6, 11] [µM]	inhibition at 15 min, 10 μM [7, 12] [%]	inhibition at 30 min, 10 μM ([4]; pH 7.4) [%]	inhibition at 30 min, 10 μM [8, 13] [%]	inhibition at 30 min, 10 μM [8, 14] [%]	inhibition at 10 min, 10 μM [8] [%]
CC(C)CN(C[C@@H](O)[C@H](Cc1ccccc1)NC(=O)OCc1cncs1)C(=O)c1ccc2c(c1)OCO2 [Compound C1]	94	73	56	97	57.5	47.9	36									
CC(C)CN(C[C@@H](O)[C@H](Cc1ccccc1)NC(=O)OCc1cncs1)C(=O)c1ccc2occc2c1 [Compound C2]					45.7			98	102	67	44.7	40				
Cc1ccc(C(=O)N(CC(C)C)C[C@@H](O)[C@H](Cc2ccccc2)NC(=O)OCc2cncs2)cc1 [Compound C3]					70.8			90	49	54	52.5	20	99	95	85	97
CC(C)CN(C[C@@H](O)[C@H](Cc1ccccc1)NC(=O)OCc1cncs1)C(=O)c1ccc(C(F)(F)F)cc1 [Compound C4]					39.8			92	79	57	31.6	62	99	95	85	99
COc1ccc(C(=O)N(CC(C)C)C[C@@H](O)[C@H](Cc2ccccc2)NC(=O)OCc2cncs2)cc1 [Compound C5]					87.1			86	41	83	85.1	14	94	92	82	92
CC(C)CN(C[C@@H](O)[C@H](Cc1ccccc1)NC(=O)OCc1cncs1)C(=O)c1ccc(F)cc1 [Compound C6]					> 100			94	65	81	79.4	41	96	82	83	92
COc1cccc(C(=O)N(CC(C)C)C[C@@H](O)[C@H](Cc2ccccc2)NC(=O)OCc2cncs2)c1 [Compound C7]					70.8			89	45	56	83.2	13	97	92	80	94
CC(C)CN(C[C@@H](O)[C@H](Cc1ccccc1)NC(=O)OCc1cncs1)C(=O)c1cccc(F)c1 [Compound C19]					> 100			77	53	69		43	93			
CC(C)(O)CN(C[C@@H](O)[C@H](Cc1ccccc1)NC(=O)OCc1cncs1)C(=O)c1ccncc1 [Compound C26]					> 100			35	30	92		0	82	95	77	84
